Experimental data: patent US10919896B2, “Preparation and uses of pyrimidinone derivatives” (Cancer Research Technology Limited, priority 2016, dated 2021)
Structures can show the parent of a compound that is named as a salt. Where two headings read alike, the source gives them in different places.

Legend:
[1] = target: Cdc7/ASK (Homo sapiens, UniProt O00311); assay: Cdc7 Biochemical Assay Method 4: off-chip mobility shift assay (Carna Biosciences); parameters: purchased Carna Biosciences; host or cells: baculovirus expression system; details: off-chip MSA, MCM2 peptide, 5 hours; read-out: Biochemical Method 4 (pIC50) (converted)
Cdc7/ASK, sequence (O00311 whole entry): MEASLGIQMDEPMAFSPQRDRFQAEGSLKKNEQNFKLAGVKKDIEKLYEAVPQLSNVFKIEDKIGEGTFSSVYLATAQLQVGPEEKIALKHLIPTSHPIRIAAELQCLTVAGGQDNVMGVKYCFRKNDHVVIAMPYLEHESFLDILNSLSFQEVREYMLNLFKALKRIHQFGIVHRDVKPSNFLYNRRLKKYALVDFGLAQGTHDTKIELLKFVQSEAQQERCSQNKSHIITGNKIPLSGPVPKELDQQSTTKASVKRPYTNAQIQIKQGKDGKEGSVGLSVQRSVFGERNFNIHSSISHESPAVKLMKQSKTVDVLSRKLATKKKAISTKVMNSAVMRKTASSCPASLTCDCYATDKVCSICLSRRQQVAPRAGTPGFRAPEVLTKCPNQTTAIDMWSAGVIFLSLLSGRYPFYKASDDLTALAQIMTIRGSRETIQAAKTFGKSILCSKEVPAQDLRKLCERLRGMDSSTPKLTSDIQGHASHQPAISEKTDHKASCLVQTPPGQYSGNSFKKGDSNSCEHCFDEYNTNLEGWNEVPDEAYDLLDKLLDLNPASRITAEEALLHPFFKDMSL
Cdc7/ASK, sequence (Q9UBU7 whole entry partner): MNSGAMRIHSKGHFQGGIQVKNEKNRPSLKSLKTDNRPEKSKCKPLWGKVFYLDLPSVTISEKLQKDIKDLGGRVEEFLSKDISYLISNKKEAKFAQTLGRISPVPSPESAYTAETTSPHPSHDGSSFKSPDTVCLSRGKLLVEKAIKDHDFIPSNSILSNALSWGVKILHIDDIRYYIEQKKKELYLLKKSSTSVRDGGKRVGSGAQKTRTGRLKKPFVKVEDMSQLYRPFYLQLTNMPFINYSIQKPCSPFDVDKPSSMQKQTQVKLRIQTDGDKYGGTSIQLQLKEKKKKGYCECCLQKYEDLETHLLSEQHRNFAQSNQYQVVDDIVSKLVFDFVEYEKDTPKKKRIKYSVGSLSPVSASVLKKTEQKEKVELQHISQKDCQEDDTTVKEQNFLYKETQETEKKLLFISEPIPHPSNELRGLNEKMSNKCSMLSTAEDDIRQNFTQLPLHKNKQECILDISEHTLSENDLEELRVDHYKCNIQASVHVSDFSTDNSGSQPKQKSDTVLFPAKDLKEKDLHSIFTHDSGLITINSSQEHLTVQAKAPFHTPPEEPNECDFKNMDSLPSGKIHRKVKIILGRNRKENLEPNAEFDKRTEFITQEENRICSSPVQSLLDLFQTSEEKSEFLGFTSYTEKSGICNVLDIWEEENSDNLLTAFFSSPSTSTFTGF
Description: This protocol describes a method for assaying Cdc7/ASK for activity. The assay is an off-chip mobility shift assay (MSA) run at Carna Biosciences.
1. Preparation of Test Compound Solution.
The test compound was dissolved in and diluted with dimethylsulfoxide (DMSO) to achieve 100-fold higher concentration which was specified by the sponsor. Then the solution was further 25-fold diluted with assay buffer to make the final test compound solution. Reference compounds for assay control were prepared similarly.
Cdc7/ASK: Full-length human Cdc7 [1-574(end) amino acids of accession number NP_003494.1] was co-expressed as N-terminal GST-fusion protein (92 kDa) with Dbf4(ASK) [1-674(end) amino acids of accession number NP_006707.1] using baculovirus expression system. GST-Cdc7 was purified by using glutathione sepharose chromatography.
3. Assay Reagents and Procedures
Off-chip Mobility Shift Assay (MSA)
1) The […] of ×2 kinase solution were prepared with assay buffer (20 mM HEPES, 0.01% Triton X-100, 1 mM DTT, pH 7.5) and mixed and incubated in a well of polypropylene 384 well microplate for 5 hours at room temperature. 2) […] of Termination Buffer (QuickScout Screening Assist MSA; Carna Biosciences) was added to the well. 3) The reaction mixture was applied to LabChip system (Perkin Elmer), and the product and substrate peptide peaks were separated and quantitated. 4) The kinase reaction was evaluated by the product ratio calculated from peak heights of product (P) and substrate (S) peptides (P/(P+S)).
Reaction time is 5 hours.
The readout value of reaction control (complete reaction mixture) was set as a 0% inhibition, and the readout value of background (Enzyme(−)) was set as a 100% inhibition, then the percent inhibition of each test solution was calculated.
IC50 value was calculated from concentration vs. % Inhibition curves by fitting to a four parameter logistic curve.

[2] = test system: Cdc7 (pS53MCM2 levels in SW48 cells); assay: Cdc7 Cell Pharmacodynamics Assay Method 3: pS53MCM2 levels in SW48 cells, 6 hours; format: cell-based; details: for EC50: Homo sapiens, SW48, 6 h, read-out: Biomarker Method 3 (pEC50) (converted)

CC(C)(F)C1CN(c2nc(-c3ccnc(F)c3)[nH]c(=O)c2Cl)CCN1 (single isomer, unassigned) [Compound 382, 5-chloro-4-[3-(1-fluoro-1-methyl-ethyl)piperazin-1-yl]-2-(2-fluoro-4-pyridyl)-1H-pyrimidin-6-one hydrochloride]
IC50 [1]: 11.7 nM | Biomarker Method 3 (pEC50) ([2]; hydrochloride): 6.16

Cl.O=c1[nH]c(-c2ccnc(F)c2)nc(N2CCNCC2C(F)(F)F)c1Cl (single isomer, unassigned) [Compound 383]
IC50 [1]: 4.47 nM | Biomarker Method 3 (pEC50) [2]: 6.67

Cl.O=c1[nH]c(-c2ccnc(F)c2)nc(N2CCNCC2C(F)(F)F)c1Cl (single isomer, unassigned) [Compound 384]
IC50 [1]: 42.7 nM | Biomarker Method 3 (pEC50) [2]: 5.33

Cl.O=c1[nH]c(-c2ccncc2)nc(N2CCNCC2C(F)(F)F)c1Cl (single isomer, unassigned) [Compound 387]
IC50 [1]: 6.03 nM | Biomarker Method 3 (pEC50) [2]: 6.51

Cl.O=c1[nH]c(-c2ccncc2)nc(N2CCNCC2C(F)(F)F)c1Cl (single isomer, unassigned) [Compound 388]
IC50 [1]: 91.2 nM | Biomarker Method 3 (pEC50) [2]: 5.29

Cl.O=c1[nH]c(-c2ccnc(F)c2)nc(N2CCNCC2C(F)F)c1Cl (single isomer, unassigned) [Compound 389]
IC50 [1]: 21.4 nM | Biomarker Method 3 (pEC50) [2]: 5.68

Cl.O=c1[nH]c(-c2ccnc(F)c2)nc(N2CCNCC2C(F)F)c1Cl (single isomer, unassigned) [Compound 390]
IC50 [1]: 4.27 nM | Biomarker Method 3 (pEC50) [2]: 6.97

Cl.O=c1[nH]c(-c2ccnc(F)c2)nc(N2CCNC(C3CC3)C2)c1Cl (single isomer, unassigned) [Compound 393]
IC50 [1]: 13.8 nM | Biomarker Method 3 (pEC50) [2]: 5.90

Cl.O=c1[nH]c(-c2ccnc(F)c2)nc(N2CCNC(C3CC3)C2)c1Cl (single isomer, unassigned) [Compound 394]
IC50 [1]: 70.8 nM | Biomarker Method 3 (pEC50) [2]: 5.26

C[C@H]1CN[C@@H](C(F)(F)F)CN1c1nc(-c2ccnc(F)c2)[nH]c(=O)c1Cl.Cl (single isomer, unassigned) [Compound 395, Cis-5-chloro-2-(2-fluoro-4-pyridyl)-4-[2-methyl-5-(trifluoromethyl)piperazin-1-yl]-1H-pyrimidin-6-one hydrochloride]
IC50 [1]: 7.76 nM | Biomarker Method 3 (pEC50) ([2]; hydrochloride): 5.67

C[C@H]1CN[C@@H](C(F)(F)F)CN1c1nc(-c2ccnc(F)c2)[nH]c(=O)c1Cl.Cl (single isomer, unassigned) [Compound 396, Cis-5-chloro-2-(2-fluoro-4-pyridyl)-4-[2-methyl-5-(trifluoromethyl)piperazin-1-yl]-1H-pyrimidin-6-one hydrochloride]
IC50 [1]: 135 nM | Biomarker Method 3 (pEC50) ([2]; hydrochloride): 5.11

O=c1[nH]c(-c2ccnc(F)c2)nc(N2CCNCC2C(F)(F)F)c1Cl (centres unmarked) [Compound 313, 5-chloro-2-(2-fluoro-4-pyridyl)-4-[2-(trifluoromethyl)piperazin-1-yl]-1H-pyrimidin-6-one hydrochloride]
IC50 [1]: 8.51 nM | EC50 [2]: 759 nM

O=c1[nH]c(-c2ccnc(F)c2)nc(N2CCNCC(F)C2)c1Cl (centres unmarked) [Compound 373]
IC50 [1]: 5.25 nM | EC50 [2]: 389 nM

O=c1[nH]c(-c2ccncc2)nc(N2CCNCC(F)(F)C2)c1Cl [Compound 374]
IC50 [1]: 5.75 nM | EC50 [2]: 437 nM

O=c1[nH]c(-c2ccnc(F)c2)nc(N2CCNCC(C(F)(F)F)C2)c1Cl (centres unmarked) [Compound 375]
IC50 [1]: 7.41 nM | EC50 [2]: 1230 nM

O=c1[nH]c(-c2ccnc(F)c2)nc(N2CCNCC2C(F)F)c1Cl (centres unmarked) [Compound 376]
IC50 [1]: 5.5 nM | EC50 [2]: 141 nM

O=c1[nH]c(-c2ccnc(F)c2)nc(N2CCNCC23CC3)c1Cl [Compound 377]
IC50 [1]: 4.37 nM | EC50 [2]: 148 nM

Cl.O=c1[nH]c(-c2ccnc(F)c2)nc(N2CCNCC(C(F)(F)F)C2)c1Cl (centres unmarked) [Compound 385]
IC50 [1]: 11.5 nM | Biomarker Method 3 (pEC50) [2]: 5.87

Cl.O=c1[nH]c(-c2ccnc(F)c2)nc(N2CCNCC(C(F)(F)F)C2)c1Cl (centres unmarked) [Compound 386]
IC50 [1]: 5.62 nM | Biomarker Method 3 (pEC50) [2]: 6.00

O=c1[nH]c(-c2ccncc2)nc(N2CCNCC2C(F)F)c1Cl (centres unmarked) [Compound 391]
IC50 [1]: 35.5 nM | EC50 [2]: 3550 nM

CC(F)(F)C1CNCCN1c1nc(-c2ccnc(F)c2)[nH]c(=O)c1Cl (centres unmarked) [Compound 392]
IC50 [1]: 38.9 nM | EC50 [2]: 5750 nM

O=c1[nH]c(-c2ccncc2F)nc(N2CCNCC(F)(F)C2)c1Cl [Compound 399, 5-chloro-4-(6,6-difluoro-1,4-diazepan-1-yl)-2-(3-fluoro-4-pyridyl)-1H-pyrimidin-6-one hydrochloride]
IC50 [1]: 12.6 nM | EC50 [2]: 1660 nM

C[C@@H]1CNCCN1c1nc(-c2ccncc2F)[nH]c(=O)c1Cl [Compound 400]
IC50 [1]: 5.75 nM | EC50 [2]: 195 nM

O=c1[nH]c(-c2ccnc(Cl)c2)nc(N2CCNCC(F)(F)C2)c1Cl [Compound 401]
IC50 [1]: 4.79 nM | EC50 [2]: 437 nM

CN1CCN(c2nc(-c3ccnc(F)c3)[nH]c(=O)c2Cl)CC(F)(F)C1 [Compound 415, 5-chloro-4-(6,6-difluoro-4-methyl-1,4-diazepan-1-yl)-2-(2-fluoro-4-pyridyl)-1H-pyrimidin-6-one]
IC50 [1]: 9.33 nM | EC50 [2]: 708 nM
